Among the data in PMC10245121, “GH20 and GH84 β-N-acetylglucosaminidases with different linkage specificities underpin mucin O-glycan breakdown capability of Bifidobacterium bifidum” (The Journal of Biological Chemistry, 2023) are Km and stoichiometry N values, retold here.

In assay [1] the target is T1, BbhV (Bifidobacterium bifidum, UniProt A0ABN5UYD8).
T1 construct: gene BBBF_1623; residues 35-1111 of 1139 aa, signal peptide and C-terminal TM region removed, C-terminal His6 tag kept; E. coli; 171 kDa by SEC, dimer
T1 sequence (A0ABN5UYD8 entry or part of it): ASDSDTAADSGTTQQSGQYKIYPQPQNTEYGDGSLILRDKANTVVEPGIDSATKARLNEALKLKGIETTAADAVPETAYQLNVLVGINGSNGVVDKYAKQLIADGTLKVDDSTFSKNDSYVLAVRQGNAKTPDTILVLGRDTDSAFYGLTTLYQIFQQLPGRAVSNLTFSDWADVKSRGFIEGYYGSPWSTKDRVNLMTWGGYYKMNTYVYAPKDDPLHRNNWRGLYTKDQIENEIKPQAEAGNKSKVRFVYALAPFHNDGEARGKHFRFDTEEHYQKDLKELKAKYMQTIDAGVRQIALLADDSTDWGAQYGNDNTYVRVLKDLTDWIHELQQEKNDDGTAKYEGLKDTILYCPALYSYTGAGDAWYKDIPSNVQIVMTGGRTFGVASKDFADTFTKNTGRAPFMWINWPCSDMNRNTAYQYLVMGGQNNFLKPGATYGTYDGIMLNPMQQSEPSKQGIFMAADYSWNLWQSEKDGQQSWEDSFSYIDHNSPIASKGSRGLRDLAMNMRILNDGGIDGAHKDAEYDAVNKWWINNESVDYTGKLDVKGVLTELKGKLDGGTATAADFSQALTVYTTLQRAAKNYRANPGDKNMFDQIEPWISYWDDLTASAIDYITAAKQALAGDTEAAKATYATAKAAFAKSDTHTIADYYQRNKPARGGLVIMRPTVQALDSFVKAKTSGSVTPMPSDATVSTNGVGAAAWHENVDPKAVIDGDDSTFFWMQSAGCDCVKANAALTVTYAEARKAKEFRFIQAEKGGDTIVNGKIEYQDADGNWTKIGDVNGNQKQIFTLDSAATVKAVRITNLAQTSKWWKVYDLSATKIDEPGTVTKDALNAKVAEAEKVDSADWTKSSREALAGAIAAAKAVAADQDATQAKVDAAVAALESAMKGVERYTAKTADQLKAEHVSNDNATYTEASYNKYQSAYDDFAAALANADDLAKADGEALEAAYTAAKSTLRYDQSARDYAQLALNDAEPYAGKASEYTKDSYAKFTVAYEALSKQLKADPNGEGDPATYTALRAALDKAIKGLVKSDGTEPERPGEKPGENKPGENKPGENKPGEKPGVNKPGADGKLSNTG
In words: initial velocities, p-nitrophenolate release ([…] nm), Michaelis-Menten fit. In kind it is biochemical. The following applies: 0.1-5.0 mM substrate; McIlvaine buffer, pH optimum 5.5 (pH and temperature of the kinetics not stated).

Assay [2] addresses BbhV (GH84 β-N-acetylglucosaminidase of Bifidobacterium bifidum JCM 1254), residues 35-1111, C-terminal His6 (Bifidobacterium bifidum JCM 1254). In words: SEC; Superdex 200 Increase 10/300 GL; 10 mM Tris-HCl pH 8.0, 150 mM NaCl; native mass estimated against thyroglobulin, ferritin, aldolase and conalbumin standards.

A word on the Km: it is the substrate concentration at which the rate is half of its maximum. As to `CC(=O)N[C@H]1[C@H](Oc2ccc([N+](=O)[O-])cc2)O[C@H](CO)[C@@H](O)[C@@H]1O` [GlcNAcβ-pNP], the Km in assay [1] was found to be 1 mM.
In general, stoichiometry N refers to the number of molecules, sites or subunits per partner or assembly. As to “BbhV (GH84 β-N-acetylglucosaminidase of Bifidobacterium bifidum JCM 1254), residues 35-1111, C-terminal His6 (enzyme)”, the stoichiometry N in assay [2] was 2.
